Results on 20 compounds are retold here after ChEMBL document CHEMBL3228010, “Potential antitumor agents. 29. Quantitative structure-activity relationships for the antileukemic bisquaternary ammonium heterocycles” (J Med Chem, 1979).

Data set [1] deals with L1210. Briefly: Antitumor activity against mouse L1210 cells […] in ip dosed C3H X DBA2 F1 hybrid mouse on day 0 and dosed at LD10 level once daily on days 1 to 5 assessed as increase in life span relative to control. Type of data set: functional.
In another data set the test system is Mus musculus. Nature of the data set: Toxicity in ip dosed C3H X DBA2 F1 hybrid mouse […] with mouse L1210 cells on day 0 and dosed once daily on days 1 to 5 measured after 50 days. Type of data set: organism-based. Conditions: in vivo, 1200 h.
Data set [2] relates to L1210. Briefly: Antitumor activity against mouse L1210 cells […] in ip dosed C3H X DBA2 F1 hybrid mouse on day 0 and dosed once daily on days 1 to 5 assessed as increase in life span relative to control. Type of data set: functional.
The nature of data set [3]: Lipophilic-hydrophilic balance, Rm of the compound by partition chromatography. Type of data set: physicochemical.

With `CC[n+]1cc(-c2ccc(NC(=O)c3ccc(Nc4cc[n+](CC)c5ccc(N)cc45)cc3N)cc2)c(N)nc1N.Cc1ccc(S(=O)(=O)[O-])cc1.Cc1ccc(S(=O)(=O)[O-])cc1`, in the data set on L1210 [1], the “log(ILSmax)” value is on record as 2.28. The compound also gave an LD10 in the data set on Mus musculus of 100 mg/kg. Besides, in the data set on L1210 [2], the D40 stood at 8.6 mg/kg. In data set [3], this compound came in with a Rm of 0.33.
For `C[n+]1cc(-c2ccc(NC(=O)c3ccc(C(=O)Nc4ccc(-c5c[n+](C)c(N)nc5N)cc4)cc3)cc2)c(N)nc1N.Cc1ccc(S(=O)(=O)[O-])cc1.Cc1ccc(S(=O)(=O)[O-])cc1` the same measures were 2.22, 12 mg/kg, 1.5 mg/kg and -0.42.
Regarding `CC[n+]1cccc(-c2ccc(NC(=O)c3ccc(C(=O)Nc4ccc(-c5ccc(-c6ccc(-c7ccc[n+](CC)c7)cc6)cc5)cc4)cc3)cc2)c1.Cc1ccc(S(=O)(=O)[O-])cc1.Cc1ccc(S(=O)(=O)[O-])cc1`, in the data set with L1210 [1], the “log(ILSmax)” value stood at 2.2. The compound further showed an LD10 in the data set with Mus musculus of 43 mg/kg. In addition, the D40 in the data set on L1210 [2] came out at 5.6 mg/kg. In data set [3], this compound showed a Rm of -0.44.
The matching figures for `C[n+]1ccc(Nc2ccc(NC(=O)c3ccc(C(=O)Nc4ccc(C(=O)Nc5ccc[n+](C)c5)cc4)cc3)cc2)cc1.[I-].[I-]`: 2.12, 4.5 mg/kg, 0.5 mg/kg and -0.12.
The matching figures for `CCC[n+]1cccc(NC(=O)c2ccc(NC(=O)c3ccc(C(=O)Nc4ccc(C(=O)Nc5ccc[n+](CCC)c5)cc4OC)cc3)c(OC)c2)c1.Cc1ccc(S(=O)(=O)[O-])cc1.Cc1ccc(S(=O)(=O)[O-])cc1`: 1.6, 140 mg/kg, 140 mg/kg and 0.3.
The matching figures for `CCC[n+]1cccc2cc(NC(=O)c3ccc(NC(=O)c4ccc(C(=O)Nc5ccc6c(ccc[n+]6CCC)c5)cc4)cc3)ccc21.Cc1ccc(S(=O)(=O)[O-])cc1.Cc1ccc(S(=O)(=O)[O-])cc1`: 1.92, 95 mg/kg, 38 mg/kg and -0.21.
In the case of `CCC[n+]1cccc2cc(NC(=O)c3ccc(C(=O)Nc4ccc5c(ccc[n+]5CCC)c4)cc3)ccc21.Cc1ccc(S(=O)(=O)[O-])cc1.Cc1ccc(S(=O)(=O)[O-])cc1`, the “log(ILSmax)” value with L1210 [1] turned out to be 1.89. The LD10 with Mus musculus was found to be 21 mg/kg. Moreover, the D40 in the data set with L1210 [2] was 15 mg/kg. Further, in data set [3], the Rm came to 0.3.
For `C[n+]1ccc(Nc2ccc(NC(=O)c3ccc(Nc4cc[n+](C)c5ccccc45)cc3N)cc2)cc1.[I-].[I-]` the same measures were 2.18, 29 mg/kg, 1.1 mg/kg and 0.24.
For `CCC[n+]1cc(-c2ccc(NC(=O)c3ccc(C(=O)Nc4ccc(-c5c[n+](CCC)c(N)nc5N)cc4)cc3)cc2)c(N)nc1N.Cc1ccc(S(=O)(=O)[O-])cc1.Cc1ccc(S(=O)(=O)[O-])cc1` the same measures were 2.15, 50 mg/kg, 7 mg/kg and -0.08.
For `CC[n+]1ccc(-c2ccc(NC(=O)c3ccc(Nc4cc[n+](CC)c5ccccc45)cc3)cc2)cc1.Cc1ccc(S(=O)(=O)[O-])cc1.Cc1ccc(S(=O)(=O)[O-])cc1` the same measures were 1.98, 10 mg/kg, 2.7 mg/kg and 0.55.
Take `CCCC[n+]1cccc2cc(NC(=O)c3ccc(C(=O)Nc4ccc5c(ccc[n+]5CCCC)c4)c(N)c3)ccc21.Cc1ccc(S(=O)(=O)[O-])cc1.Cc1ccc(S(=O)(=O)[O-])cc1`: the “log(ILSmax)” value with L1210 [1] came out at 1.72. For the same compound, the LD10 in the data set with Mus musculus stood at 18 mg/kg. Moreover, the D40 in the data set on L1210 [2] came to 9 mg/kg. This compound had a Rm in data set [3] of 0.6.
In the case of `CCCC[n+]1cccc(NC(=O)c2ccc(NC(=O)/C=C/c3ccc(C(=O)Nc4ccc(C(=O)Nc5ccc[n+](CCCC)c5)cc4)cc3)cc2)c1.Cc1ccc(S(=O)(=O)[O-])cc1.Cc1ccc(S(=O)(=O)[O-])cc1`, the “log(ILSmax)” value in the data set on L1210 [1] was 1.72. Moreover, the LD10 in the data set on Mus musculus worked out at 24 mg/kg. Further, the D40 with L1210 [2] was 14 mg/kg. The compound further showed a Rm in data set [3] of 0.4.
For `CCC[n+]1cccc(NC(=O)c2ccc(NC(=O)c3ccc(C(=O)Nc4ccc(C(=O)Nc5ccc[n+](CCC)c5)cc4)c(OC)c3)cc2)c1.Cc1ccc(S(=O)(=O)[O-])cc1.Cc1ccc(S(=O)(=O)[O-])cc1` the same measures were 1.6, 22 mg/kg, 22 mg/kg and 0.78.
For the compound `CCCC[n+]1cccc2cc(NC(=O)COc3ccc(C(=O)Nc4ccc5c(ccc[n+]5CCCC)c4)cc3)ccc21.Cc1ccc(S(=O)(=O)[O-])cc1.Cc1ccc(S(=O)(=O)[O-])cc1`, in the data set with L1210 [1], the “log(ILSmax)” value turned out to be 1.96. The same compound had an LD10 in the data set with Mus musculus of 210 mg/kg. Also, the D40 in the data set with L1210 [2] is 80 mg/kg. The compound also registered a Rm in data set [3] of 0.41.
As to `CC[n+]1ccc(Nc2ccc(C(=O)Nc3ccc(Nc4cc[n+](CC)c5ccc(N)cc45)cc3)cc2)cc1.[I-].[I-]`, the “log(ILSmax)” value in the data set on L1210 [1] is 2.23. The LD10 in the data set with Mus musculus came out at 9 mg/kg. For the same compound, the D40 in the data set with L1210 [2] worked out at 0.7 mg/kg. Besides, in data set [3], the Rm came to 0.19.
For `CC[n+]1cccc2ccc(NC(=O)c3ccc(-c4ccc(-c5ccc(-c6ccc(C(=O)Nc7ccc8ccc[n+](CC)c8c7)cc6)cc5)cc4)cc3)cc21.Cc1ccc(S(=O)(=O)[O-])cc1.Cc1ccc(S(=O)(=O)[O-])cc1` the same measures were 2.02, 106 mg/kg, 20.4 mg/kg and 0.08.
For `C[n+]1cccc2cc(NC(=O)c3ccc(-c4ccc(-c5ccc(-c6ccc(C(=O)Nc7ccc8c(ccc[n+]8C)c7)cc6)cc5)cc4)cc3)ccc21.Cc1ccc(S(=O)(=O)[O-])cc1.Cc1ccc(S(=O)(=O)[O-])cc1` the same measures were 1.9, 65 mg/kg, 10 mg/kg and -0.52.
For `C[n+]1ccc(Nc2ccc(NC(=O)c3ccc(Nc4cc[n+](C)c5cc(N)ccc45)cc3N)cc2)cc1.[Br-].[Br-]` the same measures were 2.45, 20 mg/kg, 1.2 mg/kg and -0.12.
On to `CC[n+]1ccc(-c2ccc(-c3ccc(-c4ccc(NC(=O)c5ccc(C(=O)Nc6ccc(-c7ccc(-c8ccc(-c9cc[n+](CC)cc9)cc8)cc7)cc6)cc5)cc4)cc3)cc2)cc1.Cc1ccc(S(=O)(=O)[O-])cc1.Cc1ccc(S(=O)(=O)[O-])cc1`, for which, in the data set with L1210 [1], the “log(ILSmax)” value is 2.23. For the same compound, the LD10 in the data set with Mus musculus was 14 mg/kg. The D40 in the data set on L1210 [2] was 1.2 mg/kg. The compound also came in with a Rm in data set [3] of 0.09.
Turning to `CC[n+]1cccc(C(=O)Nc2ccc(NC(=O)c3ccc(C(=O)Nc4ccc5c(ccc[n+]5CC)c4)cc3)cc2)c1.Cc1ccc(S(=O)(=O)[O-])cc1.Cc1ccc(S(=O)(=O)[O-])cc1`, in the data set on L1210 [1], the “log(ILSmax)” value is on record as 1.89. Also, the LD10 in the data set on Mus musculus was 6 mg/kg. In addition, the D40 with L1210 [2] was determined as 3.1 mg/kg. In data set [3], the Rm is -0.12.
